Results taken from patent US8580794B2 (AbbVie Inc., priority 2009, dated 2013).

These compounds were tested against GST-Bc1-2 (Homo sapiens, UniProt P10415) (assay: Time Resolved-Fluorescence Resonance Energy Transfer (TR-FRET) Bcl-2 binding assay with F-Bak peptide probe). Conditions: GST-Bcl-2 1 nM, F-Bak probe 100 nM, Tb-anti-GST 1 nM; '<' = below limit of detection; read-out: TR-FRET Bcl-2 Binding Ki.
GST-Bc1-2, sequence (P10415 whole entry): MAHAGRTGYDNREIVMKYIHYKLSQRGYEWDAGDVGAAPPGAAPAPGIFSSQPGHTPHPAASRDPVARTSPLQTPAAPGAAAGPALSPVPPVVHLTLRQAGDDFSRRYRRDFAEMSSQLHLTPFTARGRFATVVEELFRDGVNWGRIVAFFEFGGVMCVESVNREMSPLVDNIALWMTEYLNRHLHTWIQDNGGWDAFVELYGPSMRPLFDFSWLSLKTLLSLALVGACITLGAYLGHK

**Q.** COCCOCCN1CCOC(CNc2ccc(S(=O)(=O)NC(=O)c3ccc(N4CCN(CC5=C(c6ccc(Cl)cc6)CC(C)(C)CC5)CC4)cc3Oc3cnc4[nH]ccc4c3)cc2[N+](=O)[O-])C1 (stereo not shown) [Example 213, 4-(4-{[2-(4-chlorophenyl)-4,4-dimethylcyclohex-1-en-1-yl]methyl}piperazin-1-yl)-N-({4-[({4-[2-(2-methoxyethoxy)ethyl]morpholin-2-yl}methyl)amino]-3-nitrophenyl}sulfonyl)-2-(1H-pyrrolo[2,3-b]pyridin-5-yloxy)benzamide] was tested. Which Ki did it give?
**A.** < 0.01 nM

**Q.** Which Ki does the source give for CC1(C)CCC(CN2CCN(c3ccc(C(=O)NS(=O)(=O)c4cnc(OCC5(F)CCN(CC#N)CC5)c(Cl)c4)c(Oc4cnc5[nH]ccc5c4)c3)CC2)=C(c2ccc(Cl)cc2)C1 [Example 257, N-[(5-chloro-6-{[1-(cyanomethyl)-4-fluoropiperidin-4-yl]methoxy}pyridin-3-yl)sulfonyl]-4-(4-{[2-(4-chlorophenyl)-4,4-dimethylcyclohex-1-en-1-yl]methyl}piperazin-1-yl)-2-(1H-pyrrolo[2,3-b]pyridin-5-yloxy)benzamide] here?
**A.** 0.052 nM

**Q.** Which Ki does the source give for CC1(C)CCC(CN2CCN(c3ccc(C(=O)NS(=O)(=O)c4ccc(OCC5(F)CCN(C6COC6)CC5)c(C#N)c4)c(Oc4cnc5[nH]ccc5c4)c3)CC2)=C(c2ccc(Cl)cc2)C1 [Example 357, 4-(4-{[2-(4-chlorophenyl)-4,4-dimethylcyclohex-1-en-1-yl]methyl}piperazin-1-yl)-N-[(3-cyano-4-{[4-fluoro-1-(oxetan-3-yl)piperidin-4-yl]methoxy}phenyl)sulfonyl]-2-(1H-pyrrolo[2,3-b]pyridin-5-yloxy)benzamide] here?
**A.** < 0.01 nM

**Q.** For CC1(C)CCC(CN2CCN(c3ccc(C(=O)NS(=O)(=O)c4ccc(NC5CN(C6CCOCC6)C5)c([N+](=O)[O-])c4)c(Oc4cnc5[nH]ccc5c4)c3)CC2)=C(c2ccc(Cl)cc2)C1 [Example 116, 4-(4-{[2-(4-chlorophenyl)-4,4-dimethylcyclohex-1-en-1-yl]methyl}piperazin-1-yl)-N-({3-nitro-4-[(1-tetrahydro-2H-pyran-4-ylazetidin-3-yl)amino]phenyl}sulfonyl)-2-(1H-pyrrolo[2,3-b]pyridin-5-yloxy)benzamide], which Ki is on record?
**A.** < 0.01 nM

**Q.** For CC1(C)CCC(CN2CCN(c3ccc(C(=O)NS(=O)(=O)c4ccc(NCCCN(C5CCC5)C5CC5)c([N+](=O)[O-])c4)c(Oc4cnc5[nH]ccc5c4)c3)CC2)=C(c2ccc(Cl)cc2)C1 [Example 320, 4-(4-{[2-(4-chlorophenyl)-4,4-dimethylcyclohex-1-en-1-yl]methyl}piperazin-1-yl)-N-{[4-({3-[cyclobutyl(cyclopropyl)amino]propyl}amino)-3-nitrophenyl]sulfonyl}-2-(1H-pyrrolo[2,3-b]pyridin-5-yloxy)benzamide], which Ki is on record?
**A.** < 0.01 nM

**Q.** COCC1CCC(CNc2ccc(S(=O)(=O)NC(=O)c3ccc(N4CCN(CC5=C(c6ccc(Cl)cc6)CC(C)(C)CC5)CC4)cc3Oc3cnc4[nH]ccc4c3)cc2[N+](=O)[O-])CC1 (stereo not shown) [Example 374, 4-(4-{[2-(4-chlorophenyl)-4,4-dimethylcyclohex-1-en-1-yl]methyl}piperazin-1-yl)-N-{[4-({[4-(methoxymethyl)cyclohexyl]methyl}amino)-3-nitrophenyl]sulfonyl}-2-(1H-pyrrolo[2,3-b]pyridin-5-yloxy)benzamide] was tested. Which Ki did it give?
**A.** < 0.001 nM

**Q.** For CC1(C)CCC(CN2CCN(c3ccc(C(=O)NS(=O)(=O)c4ccc(OC[C@H]5CC[C@H](N6CCOCC6)CC5)c(Cl)c4)c(Oc4cnc5[nH]ccc5c4)c3)CC2)=C(c2ccc(Cl)cc2)C1 [Example 303, N-[(3-chloro-4-{[trans-4-(morpholin-4-yl)cyclohexyl]methoxy}phenyl)sulfonyl]-4-(4-{[2-(4-chlorophenyl)-4,4-dimethylcyclohex-1-en-1-yl]methyl}piperazin-1-yl)-2-(1H-pyrrolo[2,3-b]pyridin-5-yloxy)benzamide], which Ki is on record?
**A.** 0.044 nM

**Q.** With CC1(C)CCC(CN2CCN(c3ccc(C(=O)NS(=O)(=O)c4ccc(NC5CCN(C6CCC6)CC5)c([N+](=O)[O-])c4)c(Oc4cnc5[nH]ccc5c4)c3)CC2)=C(c2ccc(Cl)cc2)C1 [Example 140, 4-(4-{[2-(4-chlorophenyl)-4,4-dimethylcyclohex-1-en-1-yl]methyl}piperazin-1-yl)-N-({4-[(1-cyclobutylpiperidin-4-yl)amino]-3-nitrophenyl}sulfonyl)-2-(1H-pyrrolo[2,3-b]pyridin-5-yloxy)benzamide] as the compound, how does the Ki read?
**A.** < 0.01 nM

**Q.** For CN1CCN(Nc2ccc(S(=O)(=O)NC(=O)c3ccc(N4CCN(CC5=C(c6ccc(Cl)cc6)CC(C)(C)OC5)CC4)cc3Oc3cnc4[nH]ccc4c3)cc2[N+](=O)[O-])CC1 [Example 67, 4-(4-{[4-(4-chlorophenyl)-6,6-dimethyl-5,6-dihydro-2H-pyran-3-yl]methyl}piperazin-1-yl)-N-({4-[(4-methylpiperazin-1-yl)amino]-3-nitrophenyl}sulfonyl)-2-(1H-pyrrolo[2,3-b]pyridin-5-yloxy)benzamide], which Ki is on record?
**A.** < 0.01 nM

**Q.** For CC1(C)CCC(CN2CCN(c3ccc(C(=O)NS(=O)(=O)c4ccc(OCC5(F)CCNCC5)c([N+](=O)[O-])c4)c(Oc4cnc5[nH]ccc5c4)c3)CC2)=C(c2ccc(Cl)cc2)C1 [Example 127, 4-(4-{[2-(4-chlorophenyl)-4,4-dimethylcyclohex-1-en-1-yl]methyl}piperazin-1-yl)-N-({4-[(4-fluoropiperidin-4-yl)methoxy]-3-nitrophenyl}sulfonyl)-2-(1H-pyrrolo[2,3-b]pyridin-5-yloxy)benzamide], which Ki is on record?
**A.** < 0.01 nM

**Q.** CC1(C)CCC(CN2CCN(c3ccc(C(=O)NS(=O)(=O)c4ccc(N[C@H]5CCCN(C6CCOCC6)C5)c([N+](=O)[O-])c4)c(Oc4cnc5[nH]ccc5c4)c3)CC2)=C(c2ccc(Cl)cc2)C1 [Example 105, 4-(4-{[2-(4-chlorophenyl)-4,4-dimethylcyclohex-1-en-1-yl]methyl}piperazin-1-yl)-N-[(3-nitro-4-{[(3S)-1-tetrahydro-2H-pyran-4-ylpiperidin-3-yl]amino}phenyl)sulfonyl]-2-(1H-pyrrolo[2,3-b]pyridin-5-yloxy)benzamide] was tested. Which Ki did it give?
**A.** < 0.01 nM

**Q.** For CN1CCC(F)(COc2ccc(S(=O)(=O)NC(=O)c3ccc(N4CCN(CC5=C(c6ccc(Cl)cc6)CC(C)(C)CC5)CC4)cc3Oc3cnc4[nH]ccc4c3)cc2Cl)CC1 [Example 283, N-({3-chloro-4-[(4-fluoro-1-methylpiperidin-4-yl)methoxy]phenyl}sulfonyl)-4-(4-{[2-(4-chlorophenyl)-4,4-dimethylcyclohex-1-en-1-yl]methyl}piperazin-1-yl)-2-(1H-pyrrolo[2,3-b]pyridin-5-yloxy)benzamide], which Ki is on record?
**A.** < 0.01 nM

**Q.** With CC1(C)CCC(CN2CCN(c3ccc(C(=O)NS(=O)(=O)c4cc(F)c(F)c(OCC5(F)CCOCC5)c4)c(Oc4cnc5[nH]ccc5c4)c3)CC2)=C(c2ccc(Cl)cc2)C1 [Example 313, 4-(4-{[2-(4-chlorophenyl)-4,4-dimethylcyclohex-1-en-1-yl]methyl}piperazin-1-yl)-N-({3,4-difluoro-5-[(4-fluorotetrahydro-2H-pyran-4-yl)methoxy]phenyl}sulfonyl)-2-(1H-pyrrolo[2,3-b]pyridin-5-yloxy)benzamide] as the compound, how does the Ki read?
**A.** 1.1 nM

**Q.** With CC1(C)CC(c2ccc(Cl)cc2)=C(CN2CCN(c3ccc(C(=O)NS(=O)(=O)c4ccc(N[C@H]5CC[C@H](N6CCOCC6)CC5)c([N+](=O)[O-])c4)c(Oc4cnc5[nH]ccc5c4)c3)CC2)CO1 [Example 33, Trans-4-(4-{[4-(4-chlorophenyl)-6,6-dimethyl-5,6-dihydro-2H-pyran-3-yl]methyl}piperazin-1-yl)-N-({4-[(4-morpholin-4-ylcyclohexyl)amino]-3-nitrophenyl}sulfonyl)-2-(1H-pyrrolo[2,3-b]pyridin-5-yloxy)benzamide] as the compound, how does the Ki read?
**A.** < 0.01 nM

**Q.** CC1(C)CC(c2ccc(Cl)cc2)=C(CN2CCN(c3ccc(C(=O)NS(=O)(=O)c4cnc(OCC5CCOCC5)c(C#N)c4)c(Oc4cnc5[nH]ccc5c4)c3)CC2)CO1 [Example 35, 4-(4-{[4-(4-chlorophenyl)-6,6-dimethyl-5,6-dihydro-2H-pyran-3-yl]methyl}piperazin-1-yl)-N-{[5-cyano-6-(tetrahydro-2H-pyran-4-ylmethoxy)pyridin-3-yl]sulfonyl}-2-(1H-pyrrolo[2,3-b]pyridin-5-yloxy)benzamide] was tested. Which Ki did it give?
**A.** < 0.01 nM

**Q.** With CC1(C)CCC(CN2CCN(c3ccc(C(=O)NS(=O)(=O)c4ccc(NC5CCS(=O)(=O)CC5)c([N+](=O)[O-])c4)c(Oc4cnc5[nH]ccc5c4)c3)CC2)=C(c2ccc(Cl)cc2)C1 [Example 81, 4-(4-{[2-(4-chlorophenyl)-4,4-dimethylcyclohex-1-en-1-yl]methyl}piperazin-1-yl)-N-({4-[(1,1-dioxidotetrahydro-2H-thiopyran-4-yl)amino]-3-nitrophenyl}sulfonyl)-2-(1H-pyrrolo[2,3-b]pyridin-5-yloxy)benzamide] as the compound, how does the Ki read?
**A.** < 0.01 nM

**Q.** For CC1(C)CC(c2ccc(Cl)cc2)=C(CN2CCN(c3ccc(C(=O)NS(=O)(=O)c4ccc(OCC5COCCO5)c([N+](=O)[O-])c4)c(Oc4cnc5[nH]ccc5c4)c3)CC2)CO1 (stereo not shown) [Example 32, 4-(4-{[4-(4-chlorophenyl)-6,6-dimethyl-5,6-dihydro-2H-pyran-3-yl]methyl}piperazin-1-yl)-N-{[4-(1,4-dioxan-2-ylmethoxy)-3-nitrophenyl]sulfonyl}-2-(1H-pyrrolo[2,3-b]pyridin-5-yloxy)benzamide], which Ki is on record?
**A.** < 0.01 nM

**Q.** Which Ki does the source give for CC1(C)CCC(CN2CCN(c3ccc(C(=O)NS(=O)(=O)c4ccc(NCc5cccc(OC(F)F)c5)c([N+](=O)[O-])c4)c(Oc4cnc5[nH]ccc5c4)c3)CC2)=C(c2ccc(Cl)cc2)C1 [Example 187, 4-(4-{[2-(4-chlorophenyl)-4,4-dimethylcyclohex-1-en-1-yl]methyl}piperazin-1-yl)-N-[(4-{[3-(difluoromethoxy)benzyl]amino}-3-nitrophenyl)sulfonyl]-2-(1H-pyrrolo[2,3-b]pyridin-5-yloxy)benzamide] here?
**A.** 0.08 nM

**Q.** Which Ki does the source give for CC1(C)CCC(CN2CCN(c3ccc(C(=O)NS(=O)(=O)c4ccc(NCC5CCN(S(C)(=O)=O)C5)c([N+](=O)[O-])c4)c(Oc4cnc5[nH]ccc5c4)c3)CC2)=C(c2ccc(Cl)cc2)C1 (stereo not shown) [Example 152, 4-(4-{[2-(4-chlorophenyl)-4,4-dimethylcyclohex-1-en-1-yl]methyl}piperazin-1-yl)-N-{[4-({[1-(methylsulfonyl)pyrrolidin-3-yl]methyl}amino)-3-nitrophenyl]sulfonyl}-2-(1H-pyrrolo[2,3-b]pyridin-5-yloxy)benzamide] here?
**A.** < 0.01 nM
